The source of these data is ChEMBL document CHEMBL1126830, “Cholecystokinin peptidomimetics as selective CCK-B antagonists: design, synthesis, and in vitro and in vivo biochemical properties” (J Med Chem, 1993).

Some results are limits rather than exact numbers.

Experiment [1] addresses T1, Cholecystokinin receptor type A (Cavia porcellus, UniProt Q63931).
T1 sequence (Q63931 whole entry): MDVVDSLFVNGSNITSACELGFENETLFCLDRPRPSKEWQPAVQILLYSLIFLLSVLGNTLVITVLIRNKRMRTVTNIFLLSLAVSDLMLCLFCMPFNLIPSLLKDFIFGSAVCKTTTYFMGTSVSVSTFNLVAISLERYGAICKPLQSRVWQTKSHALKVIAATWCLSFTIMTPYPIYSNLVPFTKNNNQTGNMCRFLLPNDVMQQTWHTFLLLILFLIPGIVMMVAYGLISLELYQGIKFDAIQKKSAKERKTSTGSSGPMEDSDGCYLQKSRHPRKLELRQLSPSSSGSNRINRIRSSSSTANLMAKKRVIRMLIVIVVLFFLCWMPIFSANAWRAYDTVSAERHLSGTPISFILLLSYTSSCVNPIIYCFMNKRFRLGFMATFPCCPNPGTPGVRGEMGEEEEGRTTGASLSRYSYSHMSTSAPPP
The experiment in a line: Tested for inhibition of [3H]-pCCK-8 specific binding to cholecystokinin type A receptor in guinea pig pancreatic membranes. The class given is cell membranes.

In experiment [2] the target is T2, Cholecystokinin receptor type A (Rattus norvegicus, UniProt P30551).
T2 sequence (P30551 whole entry): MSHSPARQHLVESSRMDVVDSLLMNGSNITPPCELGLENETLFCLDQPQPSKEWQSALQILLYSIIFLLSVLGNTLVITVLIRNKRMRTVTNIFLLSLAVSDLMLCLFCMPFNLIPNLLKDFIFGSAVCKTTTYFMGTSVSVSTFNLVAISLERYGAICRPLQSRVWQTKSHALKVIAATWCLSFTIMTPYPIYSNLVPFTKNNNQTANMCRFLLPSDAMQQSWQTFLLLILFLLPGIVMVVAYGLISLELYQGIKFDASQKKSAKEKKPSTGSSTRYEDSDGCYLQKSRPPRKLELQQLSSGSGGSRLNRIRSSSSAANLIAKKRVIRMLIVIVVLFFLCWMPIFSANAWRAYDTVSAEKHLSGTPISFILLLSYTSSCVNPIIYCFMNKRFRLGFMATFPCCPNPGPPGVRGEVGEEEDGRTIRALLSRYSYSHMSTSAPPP
The experiment can be described thus: Tested for binding affinity towards cholecystokinin type A receptor in rat pancreas by displacement of [3H]pCCK-8 radioligand. In general terms: Displacement assays read how much labelled ligand stays bound in the presence of the test substance.

In experiment [3] the target is T3, Gastrin/cholecystokinin type B receptor (Rattus norvegicus, UniProt P30553).
T3 sequence (P30553 whole entry): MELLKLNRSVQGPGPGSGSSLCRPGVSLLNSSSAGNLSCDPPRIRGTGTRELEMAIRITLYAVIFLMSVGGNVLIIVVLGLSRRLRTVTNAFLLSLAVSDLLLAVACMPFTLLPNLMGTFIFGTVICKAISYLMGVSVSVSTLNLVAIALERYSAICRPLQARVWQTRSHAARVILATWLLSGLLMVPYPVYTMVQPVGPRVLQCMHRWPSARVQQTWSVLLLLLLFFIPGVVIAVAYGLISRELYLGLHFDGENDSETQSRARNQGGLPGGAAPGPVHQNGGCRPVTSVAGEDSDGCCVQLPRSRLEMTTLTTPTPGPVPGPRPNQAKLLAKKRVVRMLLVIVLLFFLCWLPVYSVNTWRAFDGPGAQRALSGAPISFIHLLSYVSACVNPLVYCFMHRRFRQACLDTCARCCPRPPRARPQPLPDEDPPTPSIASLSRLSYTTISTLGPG
The experiment in a line: Tested for binding affinity towards cholecystokinin type B receptor in rat […] by displacement of [3H]pCCK-8 radioligand.

The target in experiment [4] is T4, Gastrin/cholecystokinin type B receptor (Mus musculus, UniProt P56481).
T4 sequence (P56481 whole entry): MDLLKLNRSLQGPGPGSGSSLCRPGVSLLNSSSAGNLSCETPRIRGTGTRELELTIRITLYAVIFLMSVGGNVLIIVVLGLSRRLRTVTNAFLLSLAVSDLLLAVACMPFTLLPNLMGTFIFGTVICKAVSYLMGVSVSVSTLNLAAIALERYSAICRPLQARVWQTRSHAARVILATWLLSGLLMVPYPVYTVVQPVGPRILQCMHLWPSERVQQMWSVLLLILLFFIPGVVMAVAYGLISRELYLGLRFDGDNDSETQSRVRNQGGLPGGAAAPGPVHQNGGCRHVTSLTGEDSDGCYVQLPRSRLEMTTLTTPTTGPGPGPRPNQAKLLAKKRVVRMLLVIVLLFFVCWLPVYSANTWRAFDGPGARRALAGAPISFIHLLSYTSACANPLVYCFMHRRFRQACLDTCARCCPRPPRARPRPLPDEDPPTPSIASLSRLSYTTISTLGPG
The experiment in a line: Tested for binding affinity towards cholecystokinin type B receptor in mouse brain by displacement of [3H]pBC264 radioligand (icv). The class given is tissue-based.

Turning to `CC(Cc1c[nH]c2ccccc12)(NC(=O)OC1[C@H]2C[C@@H]3C[C@@H](C[C@H]1C3)C2)C(=O)NCCc1cccc2ccccc12` (stereo partly drawn), the Ki (commonly a dissociation constant, usually derived from enzyme kinetics or from competition with a known ligand) in experiment [1] is 2370 nM.
As to `CC(Cc1c[nH]c2ccccc12)(NC(=O)OC1[C@H]2C[C@@H]3C[C@@H](C[C@H]1C3)C2)C(=O)NCCc1ccccc1` (stereo partly drawn), the affinity in experiment [1] corresponds to a Ki of 1890 nM. This Ki and that of the compound before are within 1.5-fold of each other.
`O=C(O)CN(CCc1ccccc1)C(=O)C(Cc1c[nH]c2ccccc12)NC(=O)OC1[C@H]2C[C@@H]3C[C@@H](C[C@H]1C3)C2` (stereo partly drawn) yielded a Ki in experiment [1] of 2840 nM.
`CC(Cc1c[nH]c2ccccc12)(NC(=O)OC1[C@H]2C[C@@H]3C[C@@H](C[C@H]1C3)C2)C(=O)Nc1ccccc1` (stereo partly drawn) gave a Ki in experiment [1] of 6080 nM.
As for `CC(Cc1c[nH]c2ccccc12)(NC(=O)OC1[C@H]2C[C@@H]3C[C@@H](C[C@H]1C3)C2)C(=O)N(CCc1ccc(Cl)cc1)CC(=O)O` (stereo in doubt; 26), the results for the Ki in experiment [1] and in experiment [2] were 1130 nM and 1360 nM, respectively.
In experiment [1], `CC(Cc1c[nH]c2ccccc12)(NC(=O)OC1[C@H]2C[C@@H]3C[C@@H](C[C@H]1C3)C2)C(=O)N(CCC(=O)O)CCc1ccccc1` (stereo partly drawn) gave a Ki of 1320 nM. In other words, the single-digit micromolar range.
In experiment [1], `CC(Cc1c[nH]c2ccccc12)(NC(=O)Nc1ccc(Cl)cc1)C(=O)NCCc1ccccc1` (stereo not drawn) returned a Ki of 6330 nM.
Turning to `CC(Cc1c[nH]c2ccccc12)(NC(=O)OC1[C@H]2C[C@@H]3C[C@@H](C[C@H]1C3)C2)C(=O)N(CCc1ccc(Cl)cc1)CC(=O)O` (stereo in doubt; 26A), the Ki in experiment [1] worked out at 1060 nM; in experiment [2] it was 1230 nM.
Turning to `CC(Cc1c[nH]c2ccccc12)(NC(=O)Nc1ccc2ccccc2c1)C(=O)NCCc1ccccc1` (stereo not drawn), the Ki in experiment [1] was found to be 769 nM.
For `CC(Cc1c[nH]c2ccccc12)(NC(=O)OC1[C@H]2C[C@@H]3C[C@@H](C[C@H]1C3)C2)C(=O)NCC(=O)O` (stereo partly drawn), the inhibition constant (Ki) in experiment [1] was over 4000 nM.
On to `CC(Cc1ccccc1)(NC(=O)OC1[C@H]2C[C@@H]3C[C@@H](C[C@H]1C3)C2)C(=O)N(CCc1ccccc1)CC(=O)O` (stereo partly drawn), for which the Ki in experiment [1] came to 3800 nM.
`CC(Cc1c[nH]c2ccccc12)(NC(=O)OC1[C@H]2C[C@@H]3C[C@@H](C[C@H]1C3)C2)C(=O)Nc1ccc2ccccc2c1` (stereo partly drawn) came in with a Ki in experiment [1] of 2360 nM.
The same measure, in the same setting: the figure for `CC(Cc1c[nH]c2ccccc12)(NC(=O)OC1[C@H]2C[C@@H]3C[C@@H](C[C@H]1C3)C2)C(=O)N(CCc1ccc(Cl)cc1Cl)CC(=O)O` (stereo partly drawn) is 1040 nM.
The compound `CC(Cc1c[nH]c2ccccc12)(NC(=O)OC1[C@H]2C[C@@H]3C[C@@H](C[C@H]1C3)C2)C(=O)NCc1ccccc1` (stereo partly drawn) came in with a Ki in experiment [1] of 4100 nM. This Ki lies about 3.9-fold higher than the previous one.
Regarding `CC(Cc1c[nH]c2ccccc12)(NC(=O)OC1[C@H]2C[C@@H]3C[C@@H](C[C@H]1C3)C2)C(=O)NCCc1ccc(Cl)cc1Cl` (stereo partly drawn), affinity in experiment [1] was put at a Ki of 3160 nM.
The compound `COc1ccc(CCNC(=O)C(C)(Cc2c[nH]c3ccccc23)NC(=O)OC2[C@H]3C[C@@H]4C[C@@H](C[C@H]2C4)C3)cc1` (stereo partly drawn) came in with a Ki in experiment [1] of 3120 nM.
With `CC(Cc1cccc2ccccc12)(NC(=O)OC1[C@H]2C[C@@H]3C[C@@H](C[C@H]1C3)C2)C(=O)N(CCc1ccccc1)CC(=O)O` (stereo partly drawn), the Ki in experiment [1] is 2010 nM.
Turning to `CC(Cc1c[nH]c2ccccc12)(NC(=O)OC1[C@H]2C[C@@H]3C[C@@H](C[C@H]1C3)C2)C(=O)N(CCc1ccccc1)CC(=O)O` (stereo partly drawn), the values for the Ki in experiment [1] and in experiment [2] were 1520 nM and 531 nM, respectively.
`CC(Cc1c[nH]c2ccccc12)(NC(=O)OC1[C@H]2C[C@@H]3C[C@@H](C[C@H]1C3)C2)C(=O)NCCc1ccc(Cl)cc1` (stereo partly drawn) had a Ki in experiment [1] of 1610 nM. In other words, the single-digit micromolar range.
Regarding `CC(Cc1ccc2ccccc2c1)(NC(=O)OC1[C@H]2C[C@@H]3C[C@@H](C[C@H]1C3)C2)C(=O)N(CCc1ccccc1)CC(=O)O` (stereo partly drawn), the Ki in experiment [1] stood at 70 nM.
In experiment [1], `CC(Cc1ccc(Br)cc1)(NC(=O)OC1[C@H]2C[C@@H]3C[C@@H](C[C@H]1C3)C2)C(=O)N(CCc1ccccc1)CC(=O)O` (stereo partly drawn) returned a Ki of 3410 nM.
`CC(Cc1c[nH]c2ccccc12)(NC(=O)NC(c1ccccc1)(c1ccccc1)c1ccccc1)C(=O)NCCc1ccccc1` (stereo not drawn) displayed a Ki in experiment [1] of 1780 nM. This Ki lies about 1.9-fold lower than the previous one.
On to `CC(Cc1c[nH]c2ccccc12)(NC(=O)OC1[C@H]2C[C@@H]3C[C@@H](C[C@H]1C3)C2)C(=O)NCCc1ccc(Cl)c(Cl)c1` (stereo partly drawn), for which, in experiment [1], affinity was put at a Ki of 1540 nM.
With `CC(Cc1c[nH]c2ccccc12)(C(=O)OC1[C@H]2C[C@@H]3C[C@@H](C[C@H]1C3)C2)C(=O)N(CCc1ccc(Cl)cc1Cl)CC(=O)O` (stereo partly drawn), the Ki in experiment [1] turned out to be 3050 nM; in experiment [3], 28 nM; in experiment [2] it was 1220 nM; in experiment [4], 14 nM.
As to `CC(Cc1c[nH]c2ccccc12)(NC(=O)OC1[C@H]2C[C@@H]3C[C@@H](C[C@H]1C3)C2)C(=O)NCCCc1ccccc1` (stereo partly drawn), the affinity in experiment [1] corresponds to a Ki of 4250 nM.
In turn, `CC(Cc1c[nH]c2ccccc12)(NC(=O)OC1[C@H]2C[C@@H]3C[C@@H](C[C@H]1C3)C2)C(=O)NCCc1ccc([N+](=O)[O-])cc1` (stereo partly drawn) had a Ki in experiment [1] of 2350 nM.
In the case of `CC(Cc1c[nH]c2ccccc12)(NC(=O)OC1[C@H]2C[C@@H]3C[C@@H](C[C@H]1C3)C2)C(=O)NCCc1ccc(Br)cc1` (stereo partly drawn), the Ki in experiment [1] was 2140 nM. The Ki values of the last two compounds are within 1.5-fold of each other.
